From patent US10647680B2, “Urea compound, preparation method therefor and medical use thereof” (Ancureall Pharmaceutical (Shanghai) Co., Ltd., priority 2016, dated 2020) come the findings set out here.

Each structure is given as a SMILES string.

For one test, the system named is U937 (FLT3 wild-type). Description: In vitro growth inhibition (GI50), U937. It counts as cell-based. The note with it: Homo sapiens, U-937; Cell lines of leukemia; read-out: GI 50 U937 FLT 3(WT).
Test [1] relates to MV4-11 (FLT3 ITD+/+ mutant type). The experiment in a line: In vitro growth inhibition (GI50), MV4-11. The note with it: Homo sapiens, MV4-11; Cell lines of leukemia; read-out: GI 50 MV4-11 FLT3 (ITD +/+). It counts as cell-based, human.
Test [2] has as its system Kasumi-1 (c-Kit N822K mutant type). Description: In vitro growth inhibition (GI50), Kasumi-1. It is filed as cell-based. The note with it: Homo sapiens, Cell lines of leukemia, read-out: GI 50 Kasumi-1 Kit (N822K). A digest of the protocol: (§1)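 After 3–5 days of treatment (top concentration 5,000 nM, serially diluted 2- or 10-fold to 0.01 nM, solvent ≤1%), viability was read by CCK8 at OD450. Growth rate was normalised to the time-zero and solvent-control wells, and GI50 was derived from the curve. Cultures in RPMI1640 + 10% FBS.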

For a further test, the system named is RS4; 11 (FLT3 wild type). The experiment in a line: In vitro growth inhibition (GI50), RS4; 11. It is filed as cell-based, human. The conditions noted are these: Homo sapiens, RS4-11; Cell lines of leukemia; read-out: GI 50 RS4: 11 FLT3 (WT).
A further test has as its system HL-60 (FLT3 wild type). Description: In vitro growth inhibition (GI50), HL-60. It counts as cell-based. The note with it: Homo sapiens, Cell lines of leukemia, read-out: GI 50 HL60 FLT3 (WT). Summed up: as §1
Test [3] concerns OCI-AML3 (NPMc+ mutant type). The experiment in a line: In vitro growth inhibition (GI50), OCI-AML3. It is filed as cell-based. The conditions noted are these: Homo sapiens, OCI-AML-3; Cell lines of leukemia; read-out: GI 50 OCI- AML3 NPMc+.
Test [4] deals with MOLM-13 (FLT3 ITD+/− mutant type). The experiment in a line: In vitro growth inhibition (GI50), MOLM-13. It counts as cell-based, human. The note with it: Homo sapiens, MOLM-13; Cell lines of leukemia; read-out: GI 50 MOLM-13 FLT3 (ITD+/−).
Test [5] has as its system RAMOS (positive expression of Brutons tyrosine protein kinase). Description: In vitro growth inhibition (GI50), RAMOS. It counts as cell-based. The note with it: Homo sapiens, Cell lines of leukemia, read-out: GI 50 Ramos BTK.
Test [6] deals with KG-1 (expressing FGFR1OP2-FGFR1 fusion protein). Description: In vitro growth inhibition (GI50), KG-1. It is filed as cell-based. The conditions noted are these: Homo sapiens; Cell lines of leukemia; read-out: GI 50 KG-1 FGFR1OP 2-FGFR1.
Test [7] relates to K562 (FLT3 negative expression, positive expression of BCR-ABL fusion protein). The experiment in a line: In vitro growth inhibition (GI50), K562. It counts as cell-based. The note with it: Homo sapiens, Cell lines of leukemia, read-out: GI 50 K562 BCR-ABL.

As to `CC(C)(C)c1cc(NC(=O)Nc2ccc(-n3cnc4ncccc43)cc2)no1` [Compound 56, 1-(5-tert-butyl-isoxazol-3-yl)-3-(4-imidazo[4,5-b]pyridin-1-yl-phenyl)-urea], the GI50 in the test on U937 (FLT3 wild-type) was over 1000 nM; in test [1], 10 to 100 nM; in [2] it was over 1000 nM; with RS4; 11 (FLT3 wild type), over 1000 nM; with HL-60 (FLT3 wild type), over 1000 nM; in test [3], over 1000 nM. The GI50 in test [4] is 10 to 100 nM; in test [5], over 1000 nM; in test [6] it was 100 to 1000 nM; in test [7], over 1000 nM.
With `COc1ncnc2ncn(-c3ccc(NC(=O)Nc4cc(C(C)(C)C)on4)cc3)c12` [Compound 57, 1-(5-tert-butyl-isoxazol-3-yl)-3-[4-(6-methoxyl-purin-7-yl)-phenyl]-urea], the GI50 is over 1000 nM in the test with U937 (FLT3 wild-type); 10 to 100 nM in test [1]; over 1000 nM in test [2]; over 1000 nM in the test with RS4; 11 (FLT3 wild type); over 1000 nM in the test with HL-60 (FLT3 wild type); over 1000 nM in test [3]. Besides, the GI50 in test [4] is 10 to 100 nM; in test [5], over 1000 nM; in [6], over 1000 nM; in test [7] it was over 1000 nM.
Take `COc1ncnc2c1ncn2-c1ccc(NC(=O)Nc2cc(C(C)(C)C)on2)cc1` [Compound 58, 1-(5-tert-butyl-isoxazol-3-yl)-3-[4-(6-methoxylpurin-9-yl)-phenyl]-urea]: the GI50 in the test on U937 (FLT3 wild-type) is over 1000 nM; in test [1] it was 10 to 100 nM; in [2] it was over 1000 nM; in the test with RS4; 11 (FLT3 wild type), over 1000 nM; in the test with HL-60 (FLT3 wild type) it was over 1000 nM; in test [3], over 1000 nM. The GI50 in [4] was 10 to 100 nM; in test [5] it was over 1000 nM; in test [6], over 1000 nM; in test [7] it was over 1000 nM.
Regarding `CN(C)c1ncnc2ncn(-c3ccc(NC(=O)Nc4cc(C(C)(C)C)on4)cc3)c12` [Compound 59, 1-(5-tert-butyl-isoxazol-3-yl)-3-[4-(6-dimethylamino-purin-7-yl)-phenyl]-urea], the GI50 was over 1000 nM with U937 (FLT3 wild-type); 1 to 10 nM in test [1]; over 1000 nM in test [2]; 100 to 1000 nM with RS4; 11 (FLT3 wild type); over 1000 nM in the test on HL-60 (FLT3 wild type); over 1000 nM in test [3]. In addition, the GI50 in test [4] was 1 to 10 nM; in test [5] it was over 1000 nM; in [6], 100 to 1000 nM; in test [7], 100 to 1000 nM.
With `O=C(Nc1ccc(-n2cnc3ccccc32)cc1)Nc1nccs1` [Compound 60, 1-(4-benzimidazol-1-yl-phenyl)-3-thiazol-2-yl-urea], the GI50 (in the test on U937 (FLT3 wild-type); in test [1]; in test [2]; with RS4; 11 (FLT3 wild type); in the test with HL-60 (FLT3 wild type); in test [3]) was over 1000 nM each time. The GI50 is over 1000 nM in test [4], over 1000 nM in [5], 100 to 1000 nM in test [6] and over 1000 nM in [7].
Consider `Cc1csc(NC(=O)Nc2ccc(-n3cnc4ccccc43)cc2)n1` [Compound 61, 1-(4-benzimidazol-1-yl-phenyl)-3-(4-methyl-thiazol-2-yl)-urea], for which the GI50 (in the test with U937 (FLT3 wild-type); in [1]; in test [2]; in the test with RS4; 11 (FLT3 wild type); in the test on HL-60 (FLT3 wild type); in test [3]) was over 1000 nM throughout. For the same compound, the GI50 in test [4], in test [5], in test [6] and in test [7] was over 1000 nM in each case.
On to `O=C(Nc1ccc(-n2cnc3ccccc32)cc1)Nc1nncs1` [Compound 62, 1-(4-benzimidazol-1-yl-phenyl)-3-[1,3,4]thiadiazol-2-yl-urea], for which the GI50 (with U937 (FLT3 wild-type); in [1]; in test [2]; in the test on RS4; 11 (FLT3 wild type); with HL-60 (FLT3 wild type); in test [3]) was over 1000 nM each time. For the same compound, the GI50 in test [4], in test [5], in [6] and in test [7] was over 1000 nM each time.
`CC(C)(C)c1nnc(NC(=O)Nc2ccc(-n3cnc4ccccc43)cc2)s1` [Compound 63, 1-(4-benzimidazol-1-yl-phenyl)-3-(5-tert-butyl-[1,3,4]thiadiazole-2-yl)-urea]: the GI50 was over 1000 nM in the test with U937 (FLT3 wild-type); 1 to 10 nM in [1]; over 1000 nM in [2]; over 1000 nM in the test with RS4; 11 (FLT3 wild type); over 1000 nM with HL-60 (FLT3 wild type); over 1000 nM in test [3]. Besides, the GI50 is 1 to 10 nM in [4], over 1000 nM in test [5], over 1000 nM in test [6] and over 1000 nM in [7].
For `Cc1cc(NC(=O)Nc2ccc(-n3cnc4ccccc43)cc2)n[nH]1` [Compound 64, 1-(4-benzimidazol-1-yl-phenyl)-3-(5-methyl-1H-pyrazol-3-yl)-urea], the GI50 in the test with U937 (FLT3 wild-type) is over 1000 nM; in test [1], 100 to 1000 nM; in test [2] it was over 1000 nM; with RS4; 11 (FLT3 wild type), over 1000 nM; in the test with HL-60 (FLT3 wild type), over 1000 nM; in [3], over 1000 nM. The GI50 in test [4] was 100 to 1000 nM; in [5] it was over 1000 nM; in test [6] it was 100 to 1000 nM; in test [7], over 1000 nM.
Turning to `O=C(Nc1ccc(-n2cnc3ccccc32)cc1)Nc1cc(-c2ccccc2)[nH]n1` [Compound 65, 1-(4-benzimidazol-1-yl-phenyl)-3-(5-phenyl-1H-pyrazol-3-yl)-urea], the GI50 was over 1000 nM in the test with U937 (FLT3 wild-type); 100 to 1000 nM in [1]; over 1000 nM in test [2]; over 1000 nM with RS4; 11 (FLT3 wild type); over 1000 nM in the test with HL-60 (FLT3 wild type); over 1000 nM in [3]. In addition, the GI50 in [4] was 100 to 1000 nM; in test [5], over 1000 nM; in test [6], over 1000 nM; in [7], over 1000 nM.
For `O=C(Nc1ccc(-n2cnc3ccccc32)cc1)Nc1cc(C2CC2)n[nH]1` [Compound 66, 1-(4-benzimidazol-1-yl-phenyl)-3-(5-cyclopropyl-2H-pyrazol-3-yl)-urea], the GI50 in the test on U937 (FLT3 wild-type) was over 1000 nM; in [1], 10 to 100 nM; in test [2], over 1000 nM; in the test on RS4; 11 (FLT3 wild type), over 1000 nM; in the test with HL-60 (FLT3 wild type) it was over 1000 nM; in test [3], over 1000 nM. Also, the GI50 in test [4] was 10 to 100 nM; in test [5], over 1000 nM; in [6], over 1000 nM; in test [7], over 1000 nM.
Consider `O=C(Nc1ccc(-n2cnc3ccccc32)cc1)Nc1cc(C(F)(F)F)n[nH]1` [Compound 67, 1-(4-benzimidazol-1-yl-phenyl)-3-(5-trifluoromethyl-2H-pyrazole-3-yl)-urea], for which the GI50 in the test on U937 (FLT3 wild-type) is 100 to 1000 nM; in test [1] it was 0.1 to 1 nM; in test [2], 100 to 1000 nM; with RS4; 11 (FLT3 wild type) it was 100 to 1000 nM; with HL-60 (FLT3 wild type) it was 100 to 1000 nM; in test [3], over 1000 nM. Also, the GI50 in test [4] fell in the range of 0.1 to 1 nM; in test [5] it was 100 to 1000 nM; in test [6], 100 to 1000 nM; in test [7], 100 to 1000 nM.
`CC(C)(C)c1cc(NC(=O)Nc2ccc(-n3cnc4cc(F)ccc43)cc2)[nH]n1` [Compound 69, 1-(5-tert-butyl-2H-pyrazol-3-yl)-3-[4-(5-fluoro-benzimidazol-1-yl)-phenyl]-urea]: the GI50 in the test on U937 (FLT3 wild-type) was over 1000 nM; in test [1], 0.1 to 1 nM; in test [2], over 1000 nM; in the test with RS4; 11 (FLT3 wild type), 100 to 1000 nM; in the test on HL-60 (FLT3 wild type), over 1000 nM; in [3], over 1000 nM. Besides, the GI50 in test [4] was 0.1 to 1 nM; in [5], over 1000 nM; in test [6] it was over 1000 nM; in [7] it was 100 to 1000 nM.
Take `CC(C)(C)c1cc(NC(=O)Nc2ccc(-n3cnc4cc(C(F)(F)F)ccc43)cc2)[nH]n1` [Compound 70, 1-(5-tert-butyl-2H-pyrazol-3-yl)-3-[4-(5-trifluoromethyl-benzimidazol-1-yl)-phenyl]-urea]: the GI50 in the test on U937 (FLT3 wild-type) was over 1000 nM; in test [1] it was 1 to 10 nM; in test [2], over 1000 nM; in the test with RS4; 11 (FLT3 wild type), over 1000 nM; in the test with HL-60 (FLT3 wild type), over 1000 nM; in [3] it was over 1000 nM. For the same compound, the GI50 in test [4] is 1 to 10 nM; in test [5] it was over 1000 nM; in test [6], over 1000 nM; in [7], over 1000 nM.
